Assay results taken from publication PMC8699473, “An Easily Expandable Multi-Drug LC-MS Assay for the Simultaneous Quantification of 57 Oral Antitumor Drugs in Human Plasma” (Cancers, 2021).

Columns and labels:
[1] = parameters: method as in supplement references [1-55] as printed per drug; conditions: minimum steady-state blood plasma concentration after multiple dose administration; ref supplement references [1-55] per drug; cited from earlier work
[2] = Short-term stability in spiked pooled human plasma (bench-top, 4 °C, 56 °C)

Compound	cmin [1] [ng/mL]	Short-time stability (24h, 4°C, without daylight) Accuracy [%] ([2]; validation standard 2xLLOV)	Short-time stability (24h, RT, with daylight) Accuracy [%] ([2]; validation standard 2xLLOV)	Short-time stability (24h, RT, without daylight) Accuracy [%] ([2]; validation standard 2xLLOV)	Short-time stability (24h, 4°C, without daylight) Accuracy [%] ([2]; validation standard LLOV)	Short-time stability (24h, RT, with daylight) Accuracy [%] ([2]; validation standard LLOV)	Short-time stability (24h, RT, without daylight) Accuracy [%] ([2]; validation standard LLOV)	Short-time stability (24h, 4°C, without daylight) Accuracy [%] ([2]; validation standard MOV)	Short-time stability (24h, RT, with daylight) Accuracy [%] ([2]; validation standard MOV)	Short-time stability (24h, RT, without daylight) Accuracy [%] ([2]; validation standard MOV)	Short-time stability (24h, 4°C, without daylight) Accuracy [%] ([2]; validation standard ULOV)	Short-time stability (24h, RT, with daylight) Accuracy [%] ([2]; validation standard ULOV)	Short-time stability (24h, RT, without daylight) Accuracy [%] ([2]; validation standard ULOV)	Short-time stability (1h, 56°C) Accuracy [%] ([2]; validation standard 2xLLOV)	Short-time stability (1h, 56°C) Accuracy [%] ([2]; validation standard LLOV)	Short-time stability (1h, 56°C) Accuracy [%] ([2]; validation standard MOV)	Short-time stability (1h, 56°C) Accuracy [%] ([2]; validation standard ULOV)
Cc1ccc(Nc2nccc(N(C)c3ccc4c(C)n(C)nc4c3)n2)cc1S(N)(=O)=O [Pazopanib]	24000	101.2	103.3	104.3	104.1	100.2	105.8	97.8	99.1	101.2	97.1	102.6	99.1				
Nc1cccc2c1C(=O)N(C1CCC(=O)NC1=O)C2=O (centres unmarked) [Pomalidomide]	10.9	94.1	51.2	51.3	92.5	42.4	42.6	96.7	51.3	51.2	88.6	43.6	43.8	21.3	38.4	20.6	16.9
CNC(=O)c1cc(Oc2ccc(NC(=O)Nc3ccc(Cl)c(C(F)(F)F)c3)c(F)c2)ccn1 [Regorafenib]	1400	95.0	89.4	83.8	83.3	88.6	80.3	104.6	90.2	90.8	101.4	89.0	87.8	41.3	32.3	39.7	35.4
CN(C)C(=O)c1cc2cnc(Nc3ccc(N4CCNCC4)cn3)nc2n1C1CCCC1 [Ribociclib]	732	98.0	94.2	92.7	87.3	79.3	81.3	98.8	95.0	93.5	84.9	84.8	83.3	49.7	30.6	50.5	41.5
N#CC[C@H](C1CCCC1)n1cc(-c2ncnc3[nH]ccc23)cn1 [Ruxolitinib]	11.4	97.6	101.6	102.0	102.2	100.4	105.0	100.3	100.6	102.2	95.9	102.3	101.3	63.9	63.3	60.9	53.0
Cc1c(C(=O)Nc2ccc(N3C[C@@H](C)O[C@@H](C)C3)nc2)cccc1-c1ccc(OC(F)(F)F)cc1 [Sonidegib]	890	99.1	95.7	91.1	96.4	96.2	86.1	98.4	92.2	94.7	96.7	92.9	91.4	47.0	38.1	44.9	40.1
CNC(=O)c1cc(Oc2ccc(NC(=O)Nc3ccc(Cl)c(C(F)(F)F)c3)cc2)ccn1 [Sorafenib]	3750	97.0	85.6	81.9	96.0	83.4	72.1	98.2	89.2	91.9	92.5	91.0	89.2	38.6	28.2	38.4	34.6
CCN(CC)CCNC(=O)c1c(C)[nH]c(/C=C2\C(=O)Nc3ccc(F)cc32)c1C [Sunitinib]	51.6	105.9	79.8	83.9	111.2	93.0	98.2	101.2	83.0	86.7	106.4	93.1	93.8	54.5	65.8	44.2	40.6
CCCS(=O)(=O)Nc1ccc(F)c(C(=O)c2c[nH]c3ncc(-c4ccc(Cl)cc4)cc23)c1F [Vemurafenib]	39000	93.0	92.7	85.9	90.0	93.0	82.9	100.4	89.3	92.1	93.8	91.3	88.2	41.6	34.3	39.7	34.6
